Where two headings read alike, the source gives them in different places.
Tested on: αvβ3 positive M21 Melanoma cells
Test: Cell adhesion inhibition assay on vitronectin coated plates
Format: cell-based
Conditions: Homo sapiens

IC50 (FIG. 9, M21 cells on vitronectin, read-out: IC50 cell adhesion (FIG. 9), antagonist alone): 500 µM
IC50 (M21 cells on vitronectin coated plates, monomeric ligand, read-out: IC50 for inhibition of cell adhesion, free ligand): 64 µM
SMILES: NCCS(=O)(=O)N[C@@H](CNC(=O)c1ccc(OCCNC2=NCCCN2)cc1)C(=O)O [Liposome 10, 4-[2-(3,4,5,6-Tetrahydropyrimidin-2-ylamino)ethyloxy]benzoyl-2-(S)-aminoethylsulfonamido-β-alanine]

From patent US7803399B2, “Delivery system for nucleic acids” (The Scripps Research Institute, priority 2001, dated 2010)
